Data from PubChem BioAssay AID2060508 (Molecular Pharmacology Branch, DTP, NCI, 2025).

System: 454973-116-R2-J3-PDC spheroids, viability, % test/control
Assay: Anticancer human tumor 454973-116-R2-J3-PDC patient-derived pancreatic carcinoma cell line growth inhibition [GQUAD]
Conditions: spheroids with HUVEC and MSC; for IC50: curve of first compound; for viability, T/C: stronger effect = lower value
Procedure, shortened: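 Viability of tumor cells grown as complex spheroids with endothelial and stromal cells, exposed to drug combinations. Top concentration at or near clinical Cmax (else 10 microM), diluted in half-log increments.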

[1] = second compound 0.0316 µM, first compound 0.0316 µM
[2] = second compound 0.0316 µM, first compound 0.1 µM
[3] = second compound 0.0316 µM, first compound 0.316 µM
[4] = second compound 0.0316 µM, first compound 1 µM
[5] = second compound 0.0316 µM, first compound 3.16 µM
[6] = second compound 0.0316 µM, first compound 10 µM
[7] = second compound 0.1 µM, first compound 0.0316 µM
[8] = second compound 0.1 µM, first compound 0.1 µM
[9] = second compound 0.1 µM, first compound 0.316 µM
[10] = second compound 0.1 µM, first compound 1 µM
[11] = second compound 0.1 µM, first compound 3.16 µM
[12] = second compound 0.1 µM, first compound 10 µM
[13] = second compound 0.316 µM, first compound 0.0316 µM
[14] = second compound 0.316 µM, first compound 0.1 µM
[15] = second compound 0.316 µM, first compound 0.316 µM
[16] = second compound 0.316 µM, first compound 1 µM
[17] = second compound 0.316 µM, first compound 3.16 µM
[18] = second compound 0.316 µM, first compound 10 µM
[19] = second compound 1 µM, first compound 0.0316 µM
[20] = second compound 1 µM, first compound 0.1 µM
[21] = second compound 1 µM, first compound 0.316 µM
[22] = second compound 1 µM, first compound 1 µM
[23] = second compound 1 µM, first compound 3.16 µM
[24] = second compound 1 µM, first compound 10 µM
[25] = second compound 3.16 µM, first compound 0.0316 µM
[26] = second compound 3.16 µM, first compound 0.1 µM
[27] = second compound 3.16 µM, first compound 0.316 µM
[28] = second compound 3.16 µM, first compound 1 µM
[29] = second compound 3.16 µM, first compound 3.16 µM
[30] = second compound 3.16 µM, first compound 10 µM
[31] = second compound 10 µM, first compound 0.0316 µM
[32] = second compound 10 µM, first compound 0.1 µM
[33] = second compound 10 µM, first compound 0.316 µM
[34] = second compound 10 µM, first compound 1 µM
[35] = second compound 10 µM, first compound 3.16 µM
[36] = second compound 10 µM, first compound 10 µM
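Note: spheroids exposed to compounds for seven days.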
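Throughout, for viability, T/C: 100% = DMSO vehicle control viability.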

For `COc1cccc2c1C(=O)c1c(O)c3c(c(O)c1C2=O)CC(O)(C(=O)CO)CC3OC1CC(N)C(O)C(C)O1` (centres undefined) + Cc1cnc(CNC(=O)c2c(=O)c3ccc(N4CCCN(C)CC4)nc3n3c2sc2ccccc23)cn1, the IC50 (second compound 0.0316 µM) was 166 nM, the IC50 (second compound 0.1 µM) was 184 nM and the IC50 (second compound 0.316 µM) was 418 nM. It also gave an IC50 (second compound 1 µM) of 746 nM, an IC50 (second compound 3.16 µM) of 763 nM and an IC50 (second compound 10 µM) of less than 31.6 nM. It also gave a viability, T/C [1] of 92.9%, a viability, T/C [2] of 52.9% and a viability, T/C [3] of 37.9%. It also gave a viability, T/C [4] of 28.8%, a viability, T/C [5] of 12.9% and a viability, T/C [6] of 0.39%. For the same compound, the viability, T/C [7] was 74.5%, the viability, T/C [8] was 45.4% and the viability, T/C [9] was 43.4%. The viability, T/C [10] was 41%, the viability, T/C [11] was 13.4% and the viability, T/C [12] was 0.51%. It also gave a viability, T/C [13] of 66.4%, a viability, T/C [14] of 52.3% and a viability, T/C [15] of 49.3%. It also gave a viability, T/C [16] of 44%, a viability, T/C [17] of 12% and a viability, T/C [18] of 0.51%. It also gave a viability, T/C [19] of 62.4%, a viability, T/C [20] of 54.9% and a viability, T/C [21] of 62.8%. For the same compound, the viability, T/C [22] was 46.2%, the viability, T/C [23] was 12.3% and the viability, T/C [24] was 0.26%. The viability, T/C [25] was 68%, the viability, T/C [26] was 69.2% and the viability, T/C [27] was 63.3%. It also gave a viability, T/C [28] of 46%, a viability, T/C [29] of 11% and a viability, T/C [30] of 0.67%. The viability, T/C [31] was 15.2%, the viability, T/C [32] was 20% and the viability, T/C [33] was 43.8%. It also gave a viability, T/C [34] of 27.7%, a viability, T/C [35] of 0.35% and a viability, T/C [36] of 0.21%.
For `C=CC(=O)N1CCN(c2nc(=O)n(-c3c(C)ccnc3C(C)C)c3nc(-c4c(O)cccc4F)c(F)cc23)C(C)C1` (centres undefined) + CN(C)c1ccc(Nc2c3ccc(NC(=O)CCN4CCCC4)cc3nc3cc(NC(=O)CCN4CCCC4)ccc23)cc1, the IC50 (second compound 0.0316 µM) was greater than 10000 nM, the IC50 (second compound 0.1 µM) was greater than 10000 nM and the IC50 (second compound 0.316 µM) was greater than 10000 nM. The IC50 (second compound 1 µM) was greater than 10000 nM, the IC50 (second compound 3.16 µM) was greater than 10000 nM and the IC50 (second compound 10 µM) was greater than 10000 nM. The viability, T/C [1] was 112%, the viability, T/C [2] was 103% and the viability, T/C [3] was 110%. The viability, T/C [4] was 112%, the viability, T/C [5] was 102% and the viability, T/C [6] was 115%. It also gave a viability, T/C [7] of 103%, a viability, T/C [8] of 98.9% and a viability, T/C [9] of 107%. For the same compound, the viability, T/C [10] was 107%, the viability, T/C [11] was 102% and the viability, T/C [12] was 112%. For the same compound, the viability, T/C [13] was 107%, the viability, T/C [14] was 103% and the viability, T/C [15] was 103%. For the same compound, the viability, T/C [16] was 110%, the viability, T/C [17] was 99.5% and the viability, T/C [18] was 111%. It also gave a viability, T/C [19] of 97.3%, a viability, T/C [20] of 91.8% and a viability, T/C [21] of 104%. The viability, T/C [22] was 86.7%, the viability, T/C [23] was 102% and the viability, T/C [24] was 100%. It also gave a viability, T/C [25] of 97.7%, a viability, T/C [26] of 90.7% and a viability, T/C [27] of 93.8%. The viability, T/C [28] was 77.7%, the viability, T/C [29] was 103% and the viability, T/C [30] was 105%. For the same compound, the viability, T/C [31] was 83.4%, the viability, T/C [32] was 77.9% and the viability, T/C [33] was 82.4%. The viability, T/C [34] was 68.5%, the viability, T/C [35] was 79% and the viability, T/C [36] was 77.5%.
